{"source": "patent US7063946B2", "about": "“Methods, reagents, kits and apparatus for protein function analysis” (Meso Scale Technologies, LLC., priority 2001, dated 2006)", "tested_on": "FRK", "experiment": "Kinase inhibitor profiling, pEY phosphorylation", "format": "biochemical", "data": [{"smiles": "COc1c(C=O)c(O)cc2c1C(=O)c1ccccc1C2=O", "note": "[Damnacanthal]", "values": [{"measurement": "Inhibition specificity towards pEY phosphorylation at 10X IC50, FRK", "value": "H (high inhibition (“H”=less than 25% of the activity remaining))"}]}]}
